Test results published in ChEMBL document CHEMBL3860051, “Phosphorothioate analogs of P1,P3-di(nucleosid-5'-yl) triphosphates: Synthesis, assignment of the absolute configuration at P-atoms and P-stereodependent recognition by Fhit hydrolase” (Bioorg Med Chem, 2016).

What was measured:
[1] = Retention time of compound by RP-HPLC analysis; assay type: physicochemical
[2] = Drug level treated with 1-O-[(guanosin-5'-yl)thiophosphyl]-2-S-[(guanosin-5'-yl)dithiophosphyl]-ethane assessed as snake venom phosphodiesterase-mediated compound formation at 50 uM after 15 mins by RP-HPLC analysis; assay type: ADME; settings: serpentes, 0.25 h
[3] = target: T1, Bis(5'-adenosyl)-triphosphatase (Homo sapiens, UniProt P49789); experiment: Stability of compound assessed as human Fhit expressed in Escherichia coli BL21-mediated compound initial rate of hydrolysis per microgram of protein at 50 to 200 uM after 5 to 120 mins by RP-HPLC analysis; assay type: ADME
T1 sequence (P49789 whole entry): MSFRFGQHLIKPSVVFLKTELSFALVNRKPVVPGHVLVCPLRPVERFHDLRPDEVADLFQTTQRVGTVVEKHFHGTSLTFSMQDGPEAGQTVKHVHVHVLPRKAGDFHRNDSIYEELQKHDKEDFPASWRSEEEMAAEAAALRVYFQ

[4] = Stability of the compound assessed as snake venom phosphodiesterase-mediated initial rate of hydrolysis per microgram of protein at 200 uM after 1 hr by RP-HPLC analysis; assay type: ADME; settings: serpentes
[5] = tested on: snake venom phosphodiesterase; experiment: Stability of the compound assessed as snake venom phosphodiesterase-mediated compound hydrolysis at 200 uM after 1 hr by RP-HPLC analysis; assay type: ADME; settings: serpentes, read-out: Drug degradation
[6] = target: T1, Bis(5'-adenosyl)-triphosphatase; experiment: Stability of the compound assessed as human Fhit expressed in Escherichia coli BL21-mediated compound hydrolysis rate per microgram protein at 50 uM after 5 to 120 mins by RP-HPLC analysis; assay type: ADME
[7] = Stability of the compound assessed as snake venom phosphodiesterase-mediated initial rate of hydrolysis per microgram of protein at 50 uM after 30 mins by RP-HPLC analysis; assay type: ADME; settings: serpentes, 0.5 h
[8] = tested on: snake venom phosphodiesterase; experiment: Stability of the compound assessed as snake venom phosphodiesterase-mediated compound hydrolysis at 50 uM after 30 mins by RP-HPLC analysis; assay type: ADME; settings: serpentes, read-out: Drug degradation
[9] = Stability of the compound assessed as snake venom phosphodiesterase-mediated initial rate of hydrolysis per microgram of protein at 50 uM after 1 hr by RP-HPLC analysis; assay type: ADME; settings: serpentes
[10] = tested on: snake venom phosphodiesterase; experiment: Stability of the compound assessed as snake venom phosphodiesterase-mediated compound hydrolysis at 50 uM after 1 hr by RP-HPLC analysis; assay type: ADME; settings: serpentes, read-out: Drug degradation
[11] = Stability of the compound assessed as snake venom phosphodiesterase-mediated initial rate of hydrolysis per microgram of protein at 50 uM after 15 mins by RP-HPLC analysis; assay type: ADME; settings: serpentes, 0.25 h
[12] = tested on: snake venom phosphodiesterase; experiment: (§1) Stability of the compound assessed as snake venom phosphodiesterase-mediated compound hydrolysis at 50 uM after 15 mins by RP-HPLC analysis; assay type: ADME; settings: serpentes, snake venom phosphodiesterase; read-out: Drug degradation
[13] = Stability of the compound assessed as snake venom phosphodiesterase-mediated initial rate of hydrolysis per microgram of protein at 50 uM after 2 hrs by RP-HPLC analysis; assay type: ADME; settings: serpentes
[14] = tested on: snake venom phosphodiesterase; experiment: Stability of the compound assessed as snake venom phosphodiesterase-mediated compound hydrolysis at 50 uM after 2 hrs by RP-HPLC analysis; assay type: ADME; settings: serpentes, read-out: Drug degradation
[15] = Stability of the compound assessed as snake venom phosphodiesterase-mediated initial rate of hydrolysis per microgram of protein at 50 uM by RP-HPLC analysis; assay type: ADME; settings: serpentes
[16] = Drug level treated with (R,S)-P1,P3-di(adenosin-5'-yl)P1,P3- bis-thio-triphosphate assessed as snake venom phosphodiesterase-mediated compound formation at 50 uM after 30 mins by RP-HPLC analysis; assay type: ADME; settings: serpentes, 0.5 h
[17] = Drug level treated with (S,S)-P1,P3-di(adenosin-5'-yl)P1,P3- bis-thio-triphosphate assessed as snake venom phosphodiesterase-mediated compound formation at 50 uM after 2 hrs by RP-HPLC analysis; assay type: ADME; settings: serpentes
[18] = tested on: snake venom phosphodiesterase; experiment: Stability of compound assessed as snake venom phosphodiesterase-mediated compound hydrolysis at 50 uM by RP-HPLC analysis; assay type: ADME; settings: serpentes, read-out: Drug degradation
[19] = as §1; assay type: ADME; settings: serpentes, 0.25 h, 50 µM
[20] = Stability of the compound assessed as snake venom phosphodiesterase-mediated initial rate of hydrolysis per microgram of protein at 50 uM after 10 mins by RP-HPLC analysis; assay type: ADME; settings: serpentes
[21] = tested on: snake venom phosphodiesterase; experiment: Stability of the compound assessed as snake venom phosphodiesterase-mediated compound hydrolysis at 50 uM after 10 mins by RP-HPLC analysis; assay type: ADME; settings: serpentes, read-out: Drug degradation
[22] = Drug level treated with (R,R)-P1,P3-di(adenosin-5'-yl)P1,P3-bis-thio-triphosphate assessed as snake venom phosphodiesterase-mediated compound formation at 50 uM after 10 mins by RP-HPLC analysis; assay type: ADME; settings: serpentes

Molecule `Nc1nc2c(ncn2[C@@H]2O[C@H](CO[P@@](=O)(S)OP(=O)(O)O)[C@@H](O)[C@H]2O)c(=O)[nH]1` has a Retention_time [1] of 16.9 min.

For `Nc1nc2c(ncn2[C@@H]2O[C@H](COP(O)(O)=S)[C@@H](O)[C@H]2O)c(=O)[nH]1`, the Retention_time [1] was 11.1 min and the Drug metabolism [2] was “Metabolite_Detected”.

With `NC(=O)c1ncn([C@@H]2O[C@H](CO[P@@](=O)(S)OP(=O)(O)O[P@](=O)(S)OC[C@H]3O[C@@H](n4cnc(C(N)=O)n4)[C@H](O)[C@@H]3O)[C@@H](O)[C@H]2O)n1` the Stability [3] was “Stable”, the Drug degradation [4] was 0.0538 nmol/min and the metabolised at 1 h, 200 µM [5] was 80%.

Work on `Nc1ncnc2c1ncn2[C@@H]1O[C@H](COP(=O)(O)OP(=O)(O)OP(=O)(O)OC[C@H]2O[C@@H](n3cnc4c(N)ncnc43)[C@H](O)[C@@H]2O)[C@@H](O)[C@H]1O` yielded a Drug degradation [6] of 9810 pmol/min.

Work on `Nc1ncnc2c1ncn2[C@@H]1O[C@H](CO[P@](=O)(S)OP(=O)(O)O[P@](=O)(S)OC[C@H]2O[C@@H](n3cnc4c(N)ncnc43)[C@H](O)[C@@H]2O)[C@@H](O)[C@H]1O` yielded a Drug degradation [7] of 0.0368 nmol/min, a metabolised at 0.5 h, 50 µM [8] of 88% and a Drug degradation [6] of 27.8 pmol/min.

`Nc1nc2c(ncn2[C@@H]2O[C@H](CO[P@@](=O)(S)OP(=O)(O)O[P@](=O)(S)OC[C@H]3O[C@@H](n4cnc5c(=O)[nH]c(N)nc54)[C@H](O)[C@@H]3O)[C@@H](O)[C@H]2O)c(=O)[nH]1` showed a Drug degradation [9] of 0.1212 nmol/min, a Drug degradation [6] of 0.7 pmol/min and a metabolised at 1 h, 50 µM [10] of 95%.

`Nc1nc2c(ncn2[C@@H]2O[C@H](CO[P@](=O)(S)OP(=O)(O)O)[C@@H](O)[C@H]2O)c(=O)[nH]1` gave a Retention_time [1] of 14.9 min.

`Nc1nc2c(ncn2[C@@H]2O[C@H](COP(=O)(S)OP(=O)(O)OP(=O)(S)OC[C@H]3O[C@@H](n4cnc5c(=O)[nH]c(N)nc54)[C@H](O)[C@@H]3O)[C@@H](O)[C@H]2O)c(=O)[nH]1` (mixture of isomers) gave a Drug degradation [9] of 0.0275 nmol/min, a Drug degradation [6] of 5.9 pmol/min and a metabolised at 1 h, 50 µM [10] of 50%.

In the case of `NC(=O)c1ncn([C@@H]2O[C@H](CO[P@](=O)(S)OP(=O)(O)O[P@@](=O)(S)OC[C@H]3O[C@@H](n4cnc(C(N)=O)n4)[C@H](O)[C@@H]3O)[C@@H](O)[C@H]2O)n1`, the Stability [3] is reported as “Stable”, the Drug degradation [4] is reported as 0.0023 nmol/min and the metabolised at 1 h, 200 µM [5] is reported as 10%.

Molecule `Nc1nc2c(ncn2[C@@H]2O[C@H](COP(=O)(S)OCCSP(=O)(S)OC[C@H]3O[C@@H](n4cnc5c(=O)[nH]c(N)nc54)[C@H](O)[C@@H]3O)[C@@H](O)[C@H]2O)c(=O)[nH]1` (stereo in doubt; 9A) has a Drug degradation [6] of 3.9 pmol/min, a Drug degradation [11] of 0.6944 nmol/min and a metabolised at 0.25 h, 50 µM [12] of 70%.

`Nc1ncnc2c1ncn2[C@@H]1O[C@H](CO[P@](=O)(S)OP(=O)(O)O[P@@](=O)(S)OC[C@H]2O[C@@H](n3cnc4c(N)ncnc43)[C@H](O)[C@@H]2O)[C@@H](O)[C@H]1O` gave a Drug degradation [6] of 5.7 pmol/min, a Drug degradation [13] of 0.0012 nmol/min and a metabolised at 2 h, 50 µM [14] of 52%.

For `Nc1ncnc2c1ncn2[C@@H]1O[C@H](COP(O)(O)=S)[C@@H](O)[C@H]1O`, the Retention_time [1] was 13.8 min.

With `NC(=O)c1ncn([C@@H]2O[C@H](CO[P@](=O)(S)OP(=O)(O)O[P@](=O)(S)OC[C@H]3O[C@@H](n4cnc(C(N)=O)n4)[C@H](O)[C@@H]3O)[C@@H](O)[C@H]2O)n1` the Stability [3] was “Stable”, the Drug degradation [4] was 0.0253 nmol/min and the metabolised at 1 h, 200 µM [5] was 41%.

In the case of `NC(=O)c1ncn([C@@H]2O[C@H](CO[P@@](=O)(S)OP(=O)(O)O)[C@@H](O)[C@H]2O)n1`, the Retention_time [1] is reported as 11.8 min.

In the case of `Nc1ncnc2c1ncn2[C@@H]1O[C@H](CO[P@](=O)(S)OP(=O)(O)O)[C@@H](O)[C@H]1O`, the Retention_time [1] is reported as 16.8 min, the Drug degradation [15] is reported as 1.1 ×10⁻³ nmol/min and the Drug metabolism [16] is reported as “Metabolite_Detected”. For the same molecule, the Drug metabolism [17] was “Metabolite_Detected” and the metabolised at 50 µM [18] was 10%.

Molecule `Nc1nc2c(ncn2[C@@H]2O[C@H](COP(=O)(S)OCCSP(=O)(S)OC[C@H]3O[C@@H](n4cnc5c(=O)[nH]c(N)nc54)[C@H](O)[C@@H]3O)[C@@H](O)[C@H]2O)c(=O)[nH]1` (stereo in doubt; 9B) has a Drug degradation [6] of 2 pmol/min, a Drug degradation [11] of 0.5539 nmol/min and a Drug degradation [19] of 56%.

Molecule `Nc1ncnc2c1ncn2[C@@H]1O[C@H](CO[P@@](=O)(S)OP(=O)(O)O[P@](=O)(S)OC[C@H]2O[C@@H](n3cnc4c(N)ncnc43)[C@H](O)[C@@H]2O)[C@@H](O)[C@H]1O` has a Drug degradation [20] of 0.1349 nmol/min, a metabolised at 10 min, 50 µM [21] of 88% and a Drug degradation [6] of 5.8 pmol/min.

With `Nc1ncnc2c1ncn2[C@@H]1O[C@H](COP(=O)(O)OP(=O)(O)O)[C@@H](O)[C@H]1O` [ADENOSINE DIPHOSPHATE] the Stability [15] was “Stable”.

In the case of `Nc1ncnc2c1ncn2[C@@H]1O[C@H](CO[P@@](=O)(S)OP(=O)(O)O)[C@@H](O)[C@H]1O`, the Drug metabolism [22] is reported as “Metabolite_Detected”, the Retention_time [1] is reported as 18.9 min and the Drug degradation [15] is reported as 2.9 ×10⁻³ nmol/min. For the same molecule, the metabolised at 50 µM [18] was 10%.

In the case of `NC(=O)c1ncn([C@@H]2O[C@H](CO[P@](=O)(S)OP(=O)(O)O)[C@@H](O)[C@H]2O)n1`, the Retention_time [1] is reported as 10.9 min.

With `NC(=O)c1ncn([C@@H]2O[C@H](COP(=O)(O)S)[C@@H](O)[C@H]2O)n1` (some centres undefined) the Retention_time [1] was 10.6 min.
